According to patent publication US20240101521A1, “DIAMINOTRIAZINE COMPOUNDS” (BASF SE, priority 2021, published 2024):

Assays:
Assay in all cases: greenhouse pre-emergence herbicidal test
Type in all cases: in vivo
Settings in all cases: scale 0 to 100
Echinochloa crus-galli = system: Echinochloa crus-galli
Excerpt: (§1) The culture containers used were plastic flowerpots containing loamy sand with approximately 3.0% of humus as the substrate. The seeds of the test plants were sown separately for each species.
(§2) For the pre-emergence treatment, the active ingredients, which had been suspended or emulsified in water, were applied directly after sowing by means of finely distributing nozzles. The containers were irrigated gently to promote germination and growth and subsequently covered with transparent plastic hoods until the plants had rooted. This cover caused uniform germination of the test plants, unless this had been impaired by the active ingredients. For the post-emergence treatment, the test plants were first grown to a height of 3 to 15 cm, depending on the plant habit, and only then treated with the active ingredients which had been suspended or emulsified in water. For this purpose, the test plants were either sown directly and grown in the same containers, or they were first grown separately as seedlings and transplanted into the test containers a few days prior to treatment.
(§3) Depending on the species, the plants were kept at 10-25° C. or 20-35° C., respectively.
(§4) The test period extended over 2 to 4 weeks. During this time, the plants were tended, and their response to the individual treatments was evaluated.
(§5) Evaluation was carried out using a scale from 0 to 100. 100 means no emergence of the plants, or complete destruction of at least the aerial moieties, and 0 means no damage, or normal course of growth. A moderate herbicidal activity is given at values of at least 60, a good herbicidal activity is given at values of at least 70, and a very good herbicidal activity is given at values of at least 85.
(§6) The plants used in the greenhouse experiments were of the following species: […]

Setaria faberi = system: Setaria faberi
Excerpt: as §1, §2, §3, §4, §5, §6

Abutilon theophrasti = system: Abutilon theophrasti
Excerpt: as §1, §2, §3, §4, §5, §6

Amaranthus retroflexus = system: Amaranthus retroflexus
Excerpt: as §1, §2, §3, §4, §5, §6

CC#CCOc1c(Cl)cc(F)c(F)c1Nc1nc(N)nc(C(C)(F)CCl)n1 (stereo not drawn) [Example 84]
herbicidal activity (Echinochloa crus-galli; pre-emergence, 62 g/ha): 100% | herbicidal activity (Setaria faberi; pre-emergence, 62 g/ha): 100% | herbicidal activity (Abutilon theophrasti; pre-emergence, 62 g/ha): 100%

CC#CCOc1c(Br)cc(F)c(F)c1Nc1nc(N)nc(C(C)(C)OC)n1 [Example 85]
herbicidal activity (Echinochloa crus-galli; pre-emergence, 62 g/ha): 100% | herbicidal activity (Setaria faberi; pre-emergence, 62 g/ha): 98% | herbicidal activity (Abutilon theophrasti; pre-emergence, 62 g/ha): 85%

C#CCOc1c(Cl)cc(F)c(F)c1Nc1nc(N)nc(C(C)(C)OC)n1 [Example 88]
herbicidal activity (Echinochloa crus-galli; pre-emergence, 62 g/ha): 100% | herbicidal activity (Amaranthus retroflexus; pre-emergence, 62 g/ha): 100% | herbicidal activity (Setaria faberi; pre-emergence, 62 g/ha): 100%

C#CCOc1c(Br)cc(F)c(F)c1Nc1nc(N)nc(C(C)F)n1 (stereo not drawn) [Example 89]
herbicidal activity (Echinochloa crus-galli; pre-emergence, 62 g/ha): 100% | herbicidal activity (Amaranthus retroflexus; pre-emergence, 62 g/ha): 100% | herbicidal activity (Setaria faberi; pre-emergence, 62 g/ha): 100%

CC#CCOc1c(Br)cc(F)c(F)c1Nc1nc(N)nc(C(C)F)n1 (stereo not drawn) [Example 90]
herbicidal activity (Echinochloa crus-galli; pre-emergence, 62 g/ha): 100% | herbicidal activity (Amaranthus retroflexus; pre-emergence, 62 g/ha): 100% | herbicidal activity (Setaria faberi; pre-emergence, 62 g/ha): 100%

C#CCOc1c(Cl)cc(F)c(F)c1Nc1nc(N)nc(C(C)F)n1 (stereo not drawn) [Example 91]
herbicidal activity (Echinochloa crus-galli; pre-emergence, 62 g/ha): 100% | herbicidal activity (Amaranthus retroflexus; pre-emergence, 62 g/ha): 100% | herbicidal activity (Setaria faberi; pre-emergence, 62 g/ha): 100%

CC#CCOc1c(Cl)cc(F)c(F)c1Nc1nc(N)nc(C(C)F)n1 (stereo not drawn) [Example 92]
herbicidal activity (Echinochloa crus-galli; pre-emergence, 62 g/ha): 100% | herbicidal activity (Amaranthus retroflexus; pre-emergence, 62 g/ha): 100% | herbicidal activity (Setaria faberi; pre-emergence, 62 g/ha): 100%

CC(C)(F)c1nc(N)nc(Nc2c(F)c(Cl)cc(Cl)c2OC(F)F)n1 [Example 93]
herbicidal activity (Echinochloa crus-galli; pre-emergence, 62 g/ha): 100% | herbicidal activity (Amaranthus retroflexus; pre-emergence, 62 g/ha): 100% | herbicidal activity (Setaria faberi; pre-emergence, 62 g/ha): 100%

CC#CCOc1c(Cl)cc(F)c(F)c1Nc1nc(N)nc(C(F)C2CC2)n1 (stereo not drawn) [Example 94]
herbicidal activity (Echinochloa crus-galli; pre-emergence, 62 g/ha): 100% | herbicidal activity (Amaranthus retroflexus; pre-emergence, 62 g/ha): 100% | herbicidal activity (Setaria faberi; pre-emergence, 62 g/ha): 100%

CC#CC(C)Oc1c(Br)cc(F)c(F)c1Nc1nc(N)nc(C(C)(C)F)n1 (stereo not drawn) [Example 95]
herbicidal activity (Echinochloa crus-galli; pre-emergence, 62 g/ha): 100% | herbicidal activity (Amaranthus retroflexus; pre-emergence, 62 g/ha): 100% | herbicidal activity (Setaria faberi; pre-emergence, 62 g/ha): 100%

C#CC(C)Oc1c(Cl)cc(F)c(F)c1Nc1nc(N)nc(C(C)(C)F)n1 (stereo not drawn) [Example 99]
herbicidal activity (Amaranthus retroflexus; pre-emergence, 62 g/ha): 100% | herbicidal activity (Setaria faberi; pre-emergence, 62 g/ha): 100% | herbicidal activity (Abutilon theophrasti; pre-emergence, 62 g/ha): 100%

C#CC(C)Oc1c(F)cc(F)c(F)c1Nc1nc(N)nc(C2(F)CCCC2)n1 (stereo not drawn) [Example 105]
herbicidal activity (Echinochloa crus-galli; pre-emergence, 62,5 g/ha): 100% | herbicidal activity (Setaria faberi; pre-emergence, 62,5 g/ha): 100% | herbicidal activity (Abutilon theophrasti; pre-emergence, 62,5 g/ha): 100%

CC(C)(F)c1nc(N)nc(Nc2c(F)c(F)cc(Br)c2OCF)n1 [Example 106]
herbicidal activity (Echinochloa crus-galli; pre-emergence, 62,5 g/ha): 100% | herbicidal activity (Setaria faberi; pre-emergence, 62,5 g/ha): 100% | herbicidal activity (Abutilon theophrasti; pre-emergence, 62,5 g/ha): 100%

Nc1nc(Nc2c(F)c(F)cc(F)c2OCF)nc(C2(F)CCCC2)n1 [Example 107]
herbicidal activity (Echinochloa crus-galli; pre-emergence, 62,5 g/ha): 100% | herbicidal activity (Setaria faberi; pre-emergence, 62,5 g/ha): 100% | herbicidal activity (Abutilon theophrasti; pre-emergence, 62,5 g/ha): 100%

CCOc1c(Cl)cc(F)c(F)c1Nc1nc(N)nc(C2(F)CCCCC2)n1 [Example 110]
herbicidal activity (Echinochloa crus-galli; pre-emergence, 62,5 g/ha): 100% | herbicidal activity (Amaranthus retroflexus; pre-emergence, 62,5 g/ha): 95% | herbicidal activity (Setaria faberi; pre-emergence, 62,5 g/ha): 85%

C#CCOc1c(Cl)cc(F)c(F)c1Nc1nc(N)nc(C2(F)CCCCC2)n1 [Example 112]
herbicidal activity (Echinochloa crus-galli; pre-emergence, 62,5 g/ha): 95% | herbicidal activity (Amaranthus retroflexus; pre-emergence, 62,5 g/ha): 95% | herbicidal activity (Setaria faberi; pre-emergence, 62,5 g/ha): 90%

COc1c(Cl)cc(F)c(F)c1Nc1nc(N)nc(C(C)(F)CBr)n1 (stereo not drawn) [Example 114]
herbicidal activity (Amaranthus retroflexus; pre-emergence, 62,5 g/ha): 100% | herbicidal activity (Setaria faberi; pre-emergence, 62,5 g/ha): 100% | herbicidal activity (Abutilon theophrasti; pre-emergence, 62,5 g/ha): 100%

CCC(C)(F)c1nc(N)nc(Nc2c(F)c(F)cc(Br)c2OC)n1 (stereo not drawn) [Example 117]
herbicidal activity (Amaranthus retroflexus; pre-emergence, 62,5 g/ha): 100% | herbicidal activity (Setaria faberi; pre-emergence, 62,5 g/ha): 100% | herbicidal activity (Abutilon theophrasti; pre-emergence, 62,5 g/ha): 98%

C#CC(C)(F)c1nc(N)nc(Nc2c(F)c(F)cc(Cl)c2OC)n1 (stereo not drawn) [Example 118]
herbicidal activity (Amaranthus retroflexus; pre-emergence, 62,5 g/ha): 100% | herbicidal activity (Setaria faberi; pre-emergence, 62,5 g/ha): 100% | herbicidal activity (Abutilon theophrasti; pre-emergence, 62,5 g/ha): 100%

C=CC(C)(F)c1nc(N)nc(Nc2c(F)c(F)cc(Br)c2OC)n1 (stereo not drawn) [Example 121]
herbicidal activity (Amaranthus retroflexus; pre-emergence, 62,5 g/ha): 100% | herbicidal activity (Setaria faberi; pre-emergence, 62,5 g/ha): 100% | herbicidal activity (Abutilon theophrasti; pre-emergence, 62,5 g/ha): 100%

C=CC(C)(F)c1nc(N)nc(Nc2c(F)c(F)cc(Cl)c2OC)n1 (stereo not drawn) [Example 122]
herbicidal activity (Amaranthus retroflexus; pre-emergence, 62,5 g/ha): 100% | herbicidal activity (Setaria faberi; pre-emergence, 62,5 g/ha): 100% | herbicidal activity (Abutilon theophrasti; pre-emergence, 62,5 g/ha): 100%

COc1c(Cl)c(F)c(F)c(F)c1Nc1nc(N)nc(C(C)(C)C)n1 [Example 162]
herbicidal activity (Echinochloa crus-galli; pre-emergence, 62,5 g/ha): 95% | herbicidal activity (Setaria faberi; pre-emergence, 62,5 g/ha): 100% | herbicidal activity (Abutilon theophrasti; pre-emergence, 62,5 g/ha): 95%
